In patent US12152011B2, “Usnic acid derivative having TSLP secretion inhibitory ability and use thereof” (SEOUL NATIONAL UNIVERSITY HOSPITAL, priority 2018, dated 2024):

Columns and labels:
IL-31 gene = experiment: qRT-PCR of IL-31 gene expression in TNF-a stimulated HaCaT cells; format: cell-based, human; conditions: TNF-a stimulation, UA-CA treatment, FIG. 6
IL-1β gene = experiment: qRT-PCR of IL-1β gene expression in TNF-a stimulated HaCaT cells; format: cell-based, human; conditions: TNF-a stimulation, UA-CA treatment, FIG. 3
hypertrophic scar = experiment: Scar alleviation in rabbit ear hypertrophic scar model (biopsy, H&E histology); format: in vivo
Method: In order to confirm the efficacy of Usnic acid derivatives in relieving hypertrophic scars, the degree of scar relief by UA-CA treatment in hypertrophic scar samples was confirmed through histological comparison and pathological examination of skin tissue after biopsy.
A total of 4 rabbits weighing 3.5 kg (N2W conventional, female, 30 weeks old) were reared for a week in an environment of 21±1° C. 12-hour light/dark cycle, and the experiment was carried out. After anesthesia by intravenous administration of ketamine (60 mg/kg)+xylazine (5 mg/kg), both ears of the rabbit were sufficiently sterilized with betadine, and 5 wounds each with a diameter of 6 mm were made with a biopsy punch and a neck collar was applied. Management and supervision were made to become a hypertrophic scar model for 2 weeks after wound surgery. After confirming the hypertrophic scar model, the test material was treated twice a week for 2 weeks (untreated hypertrophic scar sample (Control), hypertrophic scar sample treated with 1, 5, and 10 mM UA-CA, 100 Thickening scar samples treated with ug/ml tranilast). After 2 weeks, visual evaluation and biopsy of the wound area were performed, followed by H&E staining, and then the changes in epidermal thickness were compared at 200 times and 400 times under a microscope.

IL-25 gene = experiment: qRT-PCR of IL-25 gene expression in TNF-a stimulated HaCaT cells; format: cell-based, human; conditions: TNF-a stimulation, UA-CA treatment, FIG. 5
IL-13 gene = experiment: qRT-PCR of IL-13 gene expression in TNF-a stimulated HaCaT cells; format: cell-based, human; conditions: TNF-a stimulation, UA-CA treatment, FIG. 4
TSLP gene = experiment: qRT-PCR of TSLP gene expression in TNF-a stimulated HaCaT cells; format: cell-based, human; conditions: TNF-a stimulation, UA-CA treatment, FIG. 2

C=C(OC(=O)/C=C/c1ccccc1)C1=C(OC(=O)/C=C/c2ccccc2)C=C2Oc3c(C(C)=O)c(O)c(C)c(O)c3[C@@]2(C)C1=O [UA-CA]
expression level of the IL-31 gene (mRNA, relative to 36B4) (IL-31 gene): dependently decreased | expression level of the IL-1β gene (mRNA, relative to 36B4) (IL-1β gene): dependently decreased | scar relief compared with positive control tranilast (hypertrophic scar; 10 mM UA-CA vs 100 ug/ml tranilast, twice a week for 2 weeks): better scar relief efficacy | scar relief compared to the untreated hypertrophic scar (hypertrophic scar; UA-CA 1, 5, 10 mM, twice a week for 2 weeks, FIGS. 7A-7E): scar relief was more advanced | thickness of the epidermis compared to the untreated thickening scar (hypertrophic scar; UA-CA-treated sample, H&E staining, FIGS. 8A-8E): became thinner | expression level of the IL-25 gene (mRNA, relative to 36B4) (IL-25 gene): dependently decreased | expression level of the IL-13 gene (mRNA, relative to 36B4) (IL-13 gene): dependently decreased | expression level of the TSLP gene (mRNA, relative to 36B4) (TSLP gene): dependently decreased
